Measurements reported in patent US11542235B2, “Herbicidal 3-azaspiro[5.5] undecane-8, 10-dione compounds” (SYNGENTA PARTICIPATIONS AG, priority 2018, dated 2023).

Legend:
Type in all cases: in vivo
Lolium multiflorum = test: Post-emergence weed phytotoxicity, Lolium multiflorum, with or without safener CQC
Procedure: (§1) Seeds of a variety of test species are sown in standard soil in pots (Lolium perenne (LOLPE), Setaria faberi (SETFA), Alopecurus myosuroides (ALOMY), Echinochloa crus-galli (ECHCG), Avena fatua (AVEFA)). After cultivation for one day (pre-emergence) or after 8 days cultivation (post-emergence) under controlled conditions in a glasshouse (at 24/16° C., day/night; 14 hours light; 65% humidity), the plants are sprayed with an aqueous spray solution derived from the formulation of the technical active ingredient in acetone/water (50:50) solution containing 0.5% Tween 20 (polyoxyethelyene sorbitan monolaurate, CAS RN 9005-64-5). Compounds are applied at […]. The test plants are then grown in a glasshouse under controlled conditions in a glasshouse (at 24/16° C., day/night; 14 hours light; 65% humidity) and watered twice daily. After 13 days for pre and post-emergence, the test is evaluated for the percentage damage caused to the plant. The biological activities are shown in the following table on a five point scale (5=80-100%; 4=60-79%; 3=40-59%; 2=20-39%; 1=0-19%).
(§2) Using procedures outlines above, wheat and barley crop plants are treated, along with two weed species Avena fatua (AVEFA) and Lolium multiflorum (LOLPE) post-emergence with compound A2 of the present invention or comparator compound C1 (Compound A-38 from WO2014/096289) at the application rates indicated. The compounds were also applied in conjunction with the safener compound cloquintocet-mexyl (CQC) at 50 g/ha.

[1] = tested on: Echinochloa crus-galli (ECHCG); test: Glasshouse herbicidal test, pre- and post-emergence, Echinochloa crus-galli; settings: 250 g/h, evaluated after 13 days, five point scale; for percentage damage caused to the plant, ECHCG POST: post-emergence; for percentage damage caused to the plant, ECHCG PRE: pre-emergence
Procedure: as §1

Setaria faberi (SETFA) = test: Glasshouse herbicidal test, pre- and post-emergence, Setaria faberi; settings: 250 g/h, evaluated after 13 days, five point scale; for percentage damage caused to the plant, SETFA PRE: pre-emergence; for percentage damage caused to the plant, SETFA POST: post-emergence
Procedure: as §1

Avena fatua (AVEFA) [2] = test: Glasshouse herbicidal test, pre- and post-emergence, Avena fatua; settings: 250 g/h, evaluated after 13 days, five point scale; for percentage damage caused to the plant, AVEFA POST: post-emergence; for percentage damage caused to the plant, AVEFA PRE: pre-emergence
Procedure: as §1

[3] = tested on: Alopecurus myosuroides (ALOMY); test: Glasshouse herbicidal test, pre- and post-emergence, Alopecurus myosuroides; settings: 250 g/h, evaluated after 13 days, five point scale; for percentage damage caused to the plant, ALOMY POST: post-emergence; for percentage damage caused to the plant, ALOMY PRE: pre-emergence
Procedure: as §1

wheat = test: Post-emergence crop phytotoxicity, wheat, with or without safener CQC
Procedure: as §1, §2

barley = test: Post-emergence crop phytotoxicity, barley, with or without safener CQC
Procedure: as §1, §2

Avena fatua (AVEFA) [4] = test: Post-emergence weed phytotoxicity, Avena fatua, with or without safener CQC
Procedure: as §1, §2

Lolium perenne (LOLPE) = test: Glasshouse herbicidal test, pre- and post-emergence, Lolium perenne; settings: 250 g/h, evaluated after 13 days, five point scale; for percentage damage caused to the plant, LOLPE POST: post-emergence; for percentage damage caused to the plant, LOLPE PRE: pre-emergence
Procedure: as §1

[5] = 60 g/ha + safener cloquintocet-mexyl (CQC) at 50 g/ha

SMILES	% phytotoxicity, LOLMU (Lolium multiflorum; 30 g/ha)	% phytotoxicity, LOLMU (Lolium multiflorum; 60 g/ha)	% phytotoxicity, LOLMU (Lolium multiflorum; [5])	percentage damage caused to the plant, ECHCG POST [1]	percentage damage caused to the plant, ECHCG PRE [1]	percentage damage caused to the plant, SETFA PRE (Setaria faberi (SETFA))	percentage damage caused to the plant, AVEFA POST (Avena fatua (AVEFA) [2])	percentage damage caused to the plant, AVEFA PRE (Avena fatua (AVEFA) [2])	percentage damage caused to the plant, ALOMY POST [3]	percentage damage caused to the plant, ALOMY PRE [3]	% phytotoxicity, Wheat (wheat; 30 g/ha)	% phytotoxicity, Wheat (wheat; 60 g/ha)	% phytotoxicity, Wheat (wheat; [5])	% phytotoxicity, Barley (barley; 30 g/ha)	% phytotoxicity, Barley (barley; 60 g/ha)	% phytotoxicity, Barley (barley; [5])	% phytotoxicity, AVENA (Avena fatua (AVEFA) [4]; 30 g/ha)	percentage damage caused to the plant, LOLPE POST (Lolium perenne (LOLPE))	percentage damage caused to the plant, LOLPE PRE (Lolium perenne (LOLPE))	percentage damage caused to the plant, SETFA POST (Setaria faberi (SETFA))	other results
CC#Cc1cc(C)c(C2C(=O)CC3(CCN(C(C)=O)CC3)CC2=O)c(C)c1 [Compound A2, 3-acetyl-9-(2,6-dimethyl-4-prop-1-ynyl-phenyl)-3-azaspiro[5.5]undecane-8,10-dione]	98%	100%	100%	5 (5=80-100%)	5 (5=80-100%)	5 (5=80-100%)	5 (5=80-100%)	5 (5=80-100%)	5 (5=80-100%)	5 (5=80-100%)	5%	15%	5%	0%	15%	0%	75%	5 (5=80-100%)	5 (5=80-100%)	–	damage to the wheat crop compared to prior art compound C1 (wheat; rates of Table B2): significantly less damaging; damage to the barley crop compared to prior art compound C1 (barley; rates of Table B2): significantly less damaging; % phytotoxicity, AVENA (Avena fatua (AVEFA) [4]; 60 g/ha): 92%; % phytotoxicity, AVENA (Avena fatua (AVEFA) [4]; [5]): 92%
CC#Cc1cc(C)c(C2C(=O)CC3(CCOCC3)CC2=O)c(C)c1 [Compound C1, reference compound]	98%	100%	100%	–	–	–	–	–	–	–	25%	75%	50%	5%	90%	18%	65%	–	–	–	% phytotoxicity, AVENA (Avena fatua (AVEFA) [4]; 60 g/ha): 90%; % phytotoxicity, AVENA (Avena fatua (AVEFA) [4]; [5]): 80%
CC#Cc1cc(C)c(C2=C(OC(=O)Oc3ccccc3)CC3(CCN(C(C)=O)CC3)CC2=O)c(C)c1 [Compound P9]	–	–	–	–	5 (5=80-100%)	5 (5=80-100%)	5 (5=80-100%)	5 (5=80-100%)	5 (5=80-100%)	5 (5=80-100%)	–	–	–	–	–	–	–	5 (5=80-100%)	5 (5=80-100%)	5 (5=80-100%)	–
CC#Cc1cc(C)c(C2=C(OC(=O)OC(C)C)CC3(CCN(C(C)=O)CC3)CC2=O)c(C)c1 [Compound P10]	–	–	–	5 (5=80-100%)	5 (5=80-100%)	5 (5=80-100%)	5 (5=80-100%)	5 (5=80-100%)	5 (5=80-100%)	5 (5=80-100%)	–	–	–	–	–	–	–	5 (5=80-100%)	5 (5=80-100%)	5 (5=80-100%)	–
CC#Cc1cc(C)c(C2=C(OC(=O)C(C)(C)C)CC3(CCN(C(C)=O)CC3)CC2=O)c(C)c1 [Compound P11]	–	–	–	5 (5=80-100%)	5 (5=80-100%)	5 (5=80-100%)	5 (5=80-100%)	5 (5=80-100%)	5 (5=80-100%)	5 (5=80-100%)	–	–	–	–	–	–	–	5 (5=80-100%)	5 (5=80-100%)	5 (5=80-100%)	–
CC#Cc1cc(C)c(C2=C(OC(=O)C(C)C)CC3(CCN(C(C)=O)CC3)CC2=O)c(C)c1 [Compound P12]	–	–	–	5 (5=80-100%)	5 (5=80-100%)	5 (5=80-100%)	5 (5=80-100%)	5 (5=80-100%)	5 (5=80-100%)	5 (5=80-100%)	–	–	–	–	–	–	–	5 (5=80-100%)	5 (5=80-100%)	5 (5=80-100%)	–
